Experiments:
Format in all cases: cell-based
[1] = tested on: KRAS G12C mutant NSCLC cell line HOP-62; assay: IC50 shift experiment, cell proliferation (Cell Titer Glo), 144 h; conditions: for IC50: Homo sapiens, TEAD inhibitor alone, 144 h, read-out: IC50 TEADi; for KRAS G12Ci No1 fold change vs 0.1 μM: IC50 shift of KRAS G12C inhibitor N°1, no TEADi vs TEAD inhibitor 0.1 μM; for KRAS G12Ci No1 fold change vs 1 μM: IC50 shift of KRAS G12C inhibitor N°1, no TEADi vs TEAD inhibitor 1 μM; for KRAS G12Ci No2 fold change vs 0.1 μM: IC50 shift of KRAS G12C inhibitor N°2, no TEADi vs TEAD inhibitor 0.1 μM; for KRAS G12Ci No2 fold change vs 1 μM: IC50 shift of KRAS G12C inhibitor N°2, no TEADi vs TEAD inhibitor 1 μM
Protocol: The KRAS G12C mutant NSCLC cell line HOP-62 was used for this study. Cells were seeded in 96 well plates at 1250 cells per well and incubated 24 hours at 37° C. and 5% CO2. The KRAS G12C inhibitors N°1 and N°2 were used at 10 concentrations and combined with TEAD inhibitors used at 2 concentrations. Compound dilution and distribution to cells was performed on the TECAN MCA384 robotic platform. […] Cell proliferation was measured using Cell Titer Glo from PROMEGA (luminescence). For each KRAS G12C inhibitor, IC50 values in these cell lines were determined in the absence or presence of TEAD inhibitors.

[2] = tested on: HOP-62 KRAS G12C mutant NSCLC cells; assay: Ray design combination experiment, cell proliferation (Cell Titer Glo), 96 h; conditions: potentiation of KRAS G12C inhibitor N°1 IC50 by the TEAD inhibitor at 370 nM, Ki = potentiation index IC50ai/IC50a
Protocol: (§1) The NSCLC cell line HOP62 which carries a KRASG12C mutation was used for this study. HO-P62 cells were seeded in 384 well plates at 300 cells per well and incubated 24 hours at 37° C. and 5% CO2. The KRAS G12C inhibitor N°1 used at 14 concentrations ranging from 10,000 nM to 0.006 nM was combined with TEAD inhibitors used at 18 concentrations ranging from 10,000 nM to 0.0001 nM, added to HOP-62 cells and incubated for 96 hours at 37° C. and 5% CO2. Compound dilution and distribution to cells was performed on the TECAN MCA384 robotic platform. Cell proliferation was measured using Cell Titer Glo from PROMEGA (luminescence).
(§2) Three independent experiments with triplicates per experiment were performed and analyzed using the combination analysis software Combo2Screen. TEAD inhibitors were defined as non-active in this cell line, their effect on the KRAS G12C inhibitor was determined as an effect of potentiation and was quantified using the potentiation index based on the following equation: […]

[3] = tested on: H-2030 KRAS G12C mutant NSCLC cells; assay: Ray design combination experiment, cell proliferation (Cell Titer Glo), 144 h; conditions: potentiation of KRAS G12C inhibitor N°1 IC50 by the TEAD inhibitor at 41 nM, Ki = potentiation index IC50ai/IC50a
Protocol: as §1, with “H-2030” for “HOP62”, “H-2030” for “HO-P62”, “250” for “300”, “H-2030” for “HOP-62”, “144” for “96”
as §2, with “triplicates/experiment” for “triplicates per experiment”

| SMILES | IC50 [1] | KRAS G12Ci No1 fold change vs 0.1 μM [1] | KRAS G12Ci No1 fold change vs 1 μM [1] | KRAS G12Ci No2 fold change vs 0.1 μM [1] | KRAS G12Ci No2 fold change vs 1 μM [1] | Mean fold potentiation 1/Ki [2] | Mean fold potentiation 1/Ki [3] |
| --- | --- | --- | --- | --- | --- | --- | --- |
| C=CC(=O)Nc1ccc2c(c1)C(O[C@H]1CC[C@H](C(F)(F)F)CC1)CC2 (relative stereo) [TEAD inhibitor N°6, N-(3-(((trans)-4-(trifluoromethyl)cyclohexyl)oxy)-2,3-dihydro-1H-inden-5-yl) acrylamide] | > 10 µM | 4 fold | 6 fold | 6 fold | 8 fold | – | – |
| C=CC(=O)Nc1ccc(C)c(Oc2ccc(Cl)cc2)c1 [TEAD inhibitor N°1, N-(3-(4-chlorophenoxy)-4-methylphenyl) acrylamide, reference compound] | 8.8 µM | 8 fold | 9 fold | – | – | 8 fold | 33 fold |
| C=CC(=O)Nc1ccc2c(c1)CCC2Nc1cccc(C(F)(F)F)c1 (stereo not shown) [TEAD inhibitor N°2, N-(1-((3-(trifluoromethyl)phenyl)amino)-2,3-dihydro-1H-inden-5-yl) acrylamide] | – | – | – | – | – | 8 fold | 18 fold |
| C=CC(=O)Nc1ccc2c(ccn2-c2ccc(C(F)(F)F)cc2)c1 [TEAD inhibitor N°3, N-(1-(4-(trifluoromethyl)phenyl)-1H-indol-5-yl) acrylamide] | > 10 µM | 6 fold | 7 fold | 9 fold | 8 fold | – | – |
| C=CC(=O)Nc1ccc2c(c1)c(COC)cn2-c1ccc(C(F)(F)F)cc1 [TEAD inhibitor N°4, N-(3-(methoxymethyl)-1-(4-(trifluoromethyl)phenyl)-1H-indol-5-yl) acrylamide] | > 10 µM | 5 fold | 10 fold | 8 fold | 12 fold | – | – |
| C=CC(=O)Nc1ccc2c(c1)c(C)cn2Cc1cccc(C(F)(F)F)c1 [TEAD inhibitor N°5, N-(3-methyl-1-(3-(trifluoromethyl)benzyl)-1H-indol-5-yl) acrylamide] | > 10 µM | 4 fold | 7 fold | 8 fold | 13 fold | – | – |
| C=CC(=O)Nc1ccc2c(c1)C(Nc1ccc(F)c(F)c1)CC2 (stereo not shown) [TEAD inhibitor N°7, N-(3-((3,4-difluorophenyl)amino)-2,3-dihydro-1H-inden-5-yl) acrylamide] | > 10 µM | 6 fold | 13 fold | 9 fold | 21 fold | – | – |
| C=CC(=O)Nc1ccc2c(c1)C(Oc1ccc(C(F)(F)F)cc1)CC2 (stereo not shown) [TEAD inhibitor N°8, N-(3-(4-(trifluoromethyl)phenoxy)-2,3-dihydro-1H-inden-5-yl) acrylamide] | > 10 µM | 6 fold | 9 fold | 10 fold | 12 fold | – | – |

Reference: US20250295664A1, “THERAPEUTIC COMBINATION OF KRAS G12C INHIBITOR AND TEAD INHIBITOR” (SANOFI, priority 2022, published 2025)
